# Source: PubChem BioAssay (NCI)
#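 Five compound concentrations were applied to cells in 96-well plates for 48 hours; endpoints were derived by simple linear interpolation of the resulting dose-response curve. GI50: concentration for 50% inhibition of growth. TGI denotes the concentration required for complete inhibition of growth.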
# Legend:
# Assay in all cases: NCI tumour cell line growth inhibition, 48 h
# A549 NSCLC = tested on: A549 NSCLC
# DU-145 prostate = tested on: DU-145 prostate
# HS 578T breast = tested on: HS 578T breast
# LOX IMVI melanoma = tested on: LOX IMVI melanoma
# M14 melanoma = tested on: M14 melanoma
# RXF 393 renal = tested on: RXF 393 renal
# U251 CNS = tested on: U251 CNS
# UO-31 renal = tested on: UO-31 renal
# CCRF-CEM leukemia = tested on: CCRF-CEM leukemia
# HL-60(TB) leukemia = tested on: HL-60(TB) leukemia
Structure (SMILES),GI50 (A549 NSCLC),TGI (A549 NSCLC),GI50 (DU-145 prostate),TGI (DU-145 prostate),GI50 (HS 578T breast),TGI (HS 578T breast),GI50 (LOX IMVI melanoma),TGI (LOX IMVI melanoma),GI50 (M14 melanoma),TGI (M14 melanoma),GI50 (RXF 393 renal),TGI (RXF 393 renal),GI50 (U251 CNS),TGI (U251 CNS),GI50 (UO-31 renal),TGI (UO-31 renal),TGI (CCRF-CEM leukemia),TGI (HL-60(TB) leukemia),GI50 (CCRF-CEM leukemia),GI50 (HL-60(TB) leukemia)
[Cu].c1ccc2c(c1)C1=NC2=NC2=NC(=NC3=NC(=NC4=NC(=N1)c1ccccc14)c1ccccc13)c1ccccc12,> 100000 nM,> 100 µM,> 100 µM,> 100 µM,> 100 µM,> 100 µM,> 100 µM,> 100 µM,> 100000 nM,> 100 µM,> 100 µM,> 100 µM,> 100 µM,> 100 µM,> 100 µM,> 100 µM,–,–,–,–
O=S(=O)(c1ccccc1)N1CCC1c1ccccc1 (centres undefined),–,> 100 µM,–,–,–,–,–,> 100 µM,–,> 100 µM,–,> 100 µM,–,> 100 µM,–,> 100 µM,> 100 µM,85.1 µM,–,–
CCCN1CCC(Oc2cc(Nc3nc(Nc4cccc(F)c4C(N)=O)c4cc[nH]c4n3)c(OC)cc2Cl)CC1,2640 nM,5.95 µM,3.68 µM,7.76 µM,3.73 µM,10.6 µM,1.57 µM,5.31 µM,859 nM,2.88 µM,2.28 µM,6.03 µM,1.68 µM,5.21 µM,2.94 µM,8.93 µM,10.1 µM,8.31 µM,3.45 µM,2.54 µM
Clc1cccc(-c2cc(-c3ccc4c(c3)OCCO4)[nH]n2)c1,1550 nM,44.5 µM,8.74 µM,38.9 µM,6.67 µM,63.3 µM,4.43 µM,39.4 µM,1490 nM,35.3 µM,7.34 µM,46.1 µM,6.83 µM,43 µM,9.27 µM,43.9 µM,182 µM,53.6 µM,6.99 µM,4.65 µM
Nc1nc(N)c2cc(S(=O)(=O)c3cccc(C(F)(F)F)c3)ccc2n1,816 nM,> 100 µM,6.35 µM,> 100 µM,4.55 µM,49.7 µM,1.53 µM,> 100 µM,2000 nM,> 100 µM,3.8 µM,57.8 µM,3.52 µM,> 100 µM,4.96 µM,> 100 µM,> 100 µM,–,3.41 µM,–
O=c1[nH]c(=O)n(Cc2ccc(C34CC5CC(CC(C5)C3)C4)c(O)c2)cc1F,–,–,16.7 µM,32.4 µM,15 µM,41.7 µM,13.4 µM,27.2 µM,11500 nM,29.2 µM,5.28 µM,18.3 µM,12.3 µM,24.9 µM,14.2 µM,29.8 µM,–,16 µM,–,3.05 µM
CCOP(=O)(OCC)C(C(=O)OC)C(=O)C(=O)Nc1cccc([N+](=O)[O-])c1 (centres undefined),–,> 100 µM,–,–,–,–,–,> 100 µM,–,> 100 µM,–,> 100 µM,–,> 100 µM,–,> 100 µM,> 100 µM,> 100 µM,–,–
CN(c1ccccc1)c1nc(=[N+](C)C)ss1,–,> 100 µM,–,–,–,–,–,–,–,> 100 µM,–,> 100 µM,–,> 100 µM,–,> 100 µM,> 100 µM,> 100 µM,–,–
Cc1cc(C)c2c(c1)CSCc1cc(C)cc(C)c1-2,–,> 100 µM,–,–,–,–,–,33.2 µM,–,91.8 µM,–,65.3 µM,–,40.5 µM,–,> 100 µM,45.5 µM,43.3 µM,–,–
Cc1cc2c(cc1Cl)SC(=Nc1ccc(Cl)cc1)N(S(=O)(=O)c1ccc(Br)s1)S2(=O)=O,18000 nM,48.7 µM,13.3 µM,26.1 µM,25.3 µM,62.2 µM,9.26 µM,24.3 µM,21900 nM,56.5 µM,–,–,8.57 µM,21.4 µM,24.6 µM,61 µM,> 100 µM,46.8 µM,10.1 µM,22.4 µM
O=C1/C(=C/c2cc(O)c(O)c(O)c2)Oc2cc(O)cc(OC3OC(CO)C(O)C(O)C3O)c21 (centres undefined),–,> 100 µM,–,–,–,–,–,–,–,50.4 µM,–,–,–,–,–,> 100 µM,44.5 µM,43.1 µM,–,–
O=c1oc2ccccc2cc1P(=O)(O)O,–,> 100 µM,–,> 100 µM,–,> 100 µM,–,> 100 µM,–,> 100 µM,–,> 100 µM,–,> 100 µM,–,–,> 100 µM,> 100 µM,–,–
O=c1c(-c2cccc3ccccc23)c(-c2cccc3ccccc23)c1=O,–,12 µM,–,–,–,–,–,27.3 µM,–,8.51 µM,–,45.7 µM,–,18.4 µM,–,> 100 µM,> 50 µM,4.87 µM,–,–
c1ccc2[nH]c(-c3ccc(Nc4nc(N5CCCC5)nc5[nH]ncc45)cc3)nc2c1,329 nM,1.22 µM,1.13 µM,2.77 µM,1.21 µM,4.26 µM,–,–,403 nM,1.62 µM,0.814 µM,2.27 µM,0.185 µM,0.39 µM,1.46 µM,3.54 µM,0.967 µM,0.517 µM,0.294 µM,0.216 µM
O=c1c2ccccc2c(=O)n2n1-c1cccc(c1)CSSCc1cccc-2c1,> 100000 nM,> 100 µM,–,–,–,–,–,> 100 µM,–,–,–,> 100 µM,–,> 100 µM,> 100 µM,> 100 µM,> 100 µM,–,> 100 µM,–
CC1COS(=O)N1c1ccccc1 (centres undefined),–,> 100 µM,–,–,–,–,–,> 100 µM,–,> 100 µM,–,> 100 µM,–,> 100 µM,–,> 100 µM,> 100 µM,> 100 µM,–,–
CCOc1ccc2c(c1)[n+]([O-])c(C(N)=O)c(N)[n+]2[O-],–,> 100 µM,–,–,–,–,–,–,–,> 100 µM,–,> 100 µM,–,> 100 µM,–,> 100 µM,> 100 µM,> 100 µM,–,–
O=C1C2C3SC(c4cc5ccccc5cc43)C2C(=O)N1c1ccccc1 (centres undefined),–,> 100 µM,–,–,–,–,–,> 100 µM,–,> 100 µM,–,94.3 µM,–,> 100 µM,–,> 100 µM,> 100 µM,> 100 µM,–,–
O=C1CN=C(c2ccccc2)c2ccncc2N1,–,> 100 µM,–,–,–,–,–,> 100 µM,–,> 100 µM,–,> 100 µM,–,> 100 µM,–,> 100 µM,> 100 µM,> 100 µM,–,–
